Reference: patent publication US20250304973A1, “HIGH-AFFINITY THROMBIN APTAMERS AND METHODS OF USE” (Ayass Bioscience LLC, priority 2024, published 2025)
Entries after “also recorded” stand apart in the source; their conditions may differ.

Assays:
[1] = biological target: T1, human alpha-thrombin protein (Homo sapiens, UniProt P00734); experiment: ELISA-based binding assay of biotinylated thrombin aptamers to thrombin protein; conditions: for Kd: ELISA-based competition assay, 5′ biotin aptamer with or without 100-fold excess non-biotinylated aptamer, estimated, read-out: binding affinity to thrombin, dissociation constant (Kd); for binding to immobilized human thrombin (absorbance at 450 nm): top nine enriched aptamers, biotinylated, FIG. 2A
T1 construct: Native human alpha-thrombin protein; purchased ThermoFisher Scientific RP-43100; host or cells: native protein
Description: 135. Native human alpha-thrombin protein (ThermoFisher Scientific, cat #RP-43100, Waltham, MA, USA) was added to each well of a 96-well plate (Nunc MaxiSorp flat-bottom 96-well plates, ThermoFisher Scientific, cat #44-2404-21, Waltham, MA, USA) at a concentration of 250 nM in Tris-buffered saline with a volume of 100 μL per well. The plate was then incubated at 4° C. for 16 h to allow the wells to become coated with thrombin. After removing the thrombin solution, the wells were washed and blocked using blocking buffer (20 mM Tris, 150 mM NaCl pH 7.5, 2% BSA, 0.1% Tween 20 and 100 μg/mL of sheared salmon sperm DNA) for a 1 h duration. Next, biotinylated aptamers at the indicated concentrations in a volume of 100 μL were added to the wells in an incubation buffer (20 mM Tris, 150 mM NaCl pH 7.5, 0.1% BSA, 0.1% Tween 20 and 100 μg/mL of sheared salmon sperm DNA) and incubated for 1 h at room temperature. In the competition binding assay, unlabeled aptamers were added along with the biotinylated aptamers, with the unlabeled aptamers being present in a 100-fold excess compared to the biotinylated aptamers. Following three washing steps with wash buffer (20 mM Tris, 150 mM NaCl pH 7.5, 0.1% BSA and 0.1% Tween 20), streptavidin-HRP (ThermoFisher Scientific, cat #21130, Waltham, MA, USA) was added at a dilution of 1:5000 in the incubation buffer. The plate was washed again three times to remove any unbound reagents. The bound biotinylated aptamers were then detected using 3,3′,5,5′-Tetramethylbenzidine (TMB) substrate (ThermoFisher Scientific, cat #34021, Waltham, MA, USA) following the manufacturer's instructions.

Factor II activity = biological target: T2, Factor II activity (Homo sapiens, UniProt P00734); experiment: Dose-dependent Factor II activity in whole blood; type: biochemical; conditions: 1, 2, 3, 4 uM; 2 h room temperature; citrated whole human blood
T2 construct: tissue Rockland Immunochemicals, Inc R214-0050; host or cells: human citrated plasma / whole blood
Description: 138. […] Factor II activity was measured using human plasma immunodepleted of Factor II for the quantitative determination of Factor II activity in citrated plasma based on the prothrombin time (PT) assay, for which an ACLTOP coagulation analyzer manufactured by Instrumentation Laboratory (Bedford, MA, USA) was used. To evaluate the dose-dependent activity of the aptamers in whole blood, human blood samples were collected in citrate-treated tubes. Subsequently, the blood samples were incubated at room temperature for 2 h in both the absence and presence of various concentrations of thrombin aptamers. To measure the Factor II activity using the ACLTOP coagulation analyzer, plasma was separated from the cells by centrifugation at 1500×g for 10 min at 4° C. For the dose-dependent study, concentrations of 1 uM, 2 uM, 3 uM, and 4 uM of AYA1809002 and AYA1809004 were utilized.
(§1) 156. To facilitate future applications, gaining a comprehensive understanding of the activity of aptamers in whole blood is of paramount importance. To assess their effectiveness, we tested the selected aptamers at various concentrations in whole blood to evaluate their impact on Factor II activity and PT time. Human blood samples were collected in citrate- treated tubes. The blood samples were then incubated at room temperature for 2 h in the absence or presence of varying concentrations of thrombin aptamers. […]

whole human blood = experiment: Dose-dependent prothrombin time (PT) in whole blood; type: biochemical; conditions: 1, 2, 3, 4 uM; 2 h room temperature; citrated whole human blood
Description: 139. […] PT time was measured using RecombiPlasTin 2G for quantitative determination in human citrated plasma of PT and Fibrinogen on an ACLTOP coagulation analyzer manufactured by Instrumentation Laboratory (Bedford, MA, USA). To assess the activity of the aptamers in a dose-dependent manner in whole blood, human blood samples were collected in citrate-treated tubes. The blood samples were then incubated at room temperature for 2 h in the absence or presence of varying concentrations of the thrombin aptamers. To measure the Prothrombin Time (PT) on the ACLTOP coagulation analyzer, plasma was obtained by centrifuging the samples at 1500×g for 10 min at 4° C. For the dose dependence study, concentrations of 1 uM, 2 uM, 3 uM, and 4 uM of AYA1809002 and AYA1809004 were utilized.
as §1

thrombin = thrombin (Homo sapiens, UniProt P00734); experiment: Direct thrombin activity inhibition (Thrombin Inhibitor Screening Assay Kit, fluorometric); type: biochemical; parameters: a thrombin enzyme mixture was added to each sample and control well; purchased Abcam ab197007; conditions: different aptamer concentrations; AMC substrate, 360/460 nm, 45 min, 37° C.
Description: 141. A Thrombin Inhibitor Screening Assay Kit (fluorometric) (Abcam, cat #ab197007, Waltham, Boston, MA, USA) was employed to test the direct binding ability and inhibitory potential of the AYA1809002 and AYA1809004 aptamers against thrombin. The procedure was carried out following the standard protocol provided with the kit. […] Subsequently, a thrombin enzyme mixture was added to each sample and control well. Following an incubation period of 20 min, a substrate mixture was introduced into each sample and control well. Fluorescence measurements were taken using a SYNERGY/HTX multi-mode reader (BioTek, Agilent Technologies, Santa Clara, CA 95051, USA) with the excitation/emission wavelengths set at 360/460 nm. The measurements were recorded for 45 min at a temperature of 37° C. while ensuring protection from light.
155. The direct binding and inhibitory capabilities of AYA1809002 and AYA1809004 ap- tamers on thrombin were evaluated using a Thrombin Inhibitor Screening Assay Kit (fluorometric). The procedure was carried out following the standard protocol provided with the kit. […] The fluorescence intensity is then measured over time to assess the thrombin inhibitory potential of the sample. […] The released AMC is detectable through fluorescence measurement at an excitation/emission wavelength of 360/460 nm.

| Substance | Kd [1] [nM] | binding to immobilized human thrombin (absorbance at 450 nm) [1] | effect on Factor II activity in whole blood (Factor II activity) | effect on prothrombin time (PT) in whole blood (whole human blood) | inhibition of thrombin activity (thrombin) |
| --- | --- | --- | --- | --- | --- |
| AYA1809002: ssDNA thrombin aptamer GCGGTGTTGCTGGGGTTGGGAGGTTGGAGGAAGCAATCGC | 10 | strong binding capabilities | dose-dependent decrease in Factor II activity | corresponding increase in prothrombin time; also recorded: corresponding increase in PT | dose-dependent inhibition of thrombin activity |
| AYA1809004: ssDNA thrombin aptamer TCGTCAAGGTACGGTTGGGGGGGTGGGTGTTGACGTTGAA (DNA, backbone not given here) | 13 | strong binding capabilities | dose-dependent decrease in Factor II activity | corresponding increase in prothrombin time | dose-dependent inhibition of thrombin activity |
